Measured values as given in the supplement of paper PMC11061612.

Tests used:
Experiment in all cases: combination Emax (second highest fraction inhibited in the dose matrix, 72 h); higher = more inhibition; extreme values may be limits of the assay
[1] = system: B-CPAP (Thyroid Gland Carcinoma)
Procedure, shortened: (§1)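 Cell lines in DMEM/F12 or RPMI with 10% FBS were plated in 1536-well plates, held 24 hours at 37°C, 5% CO2, then given two-drug dose matrices for 72 hours (DMSO typically 0.2%). Viability was read by CellTiter-Glo 2.0 luminescence and scaled as inhibition from 0 (vehicle wells) to 1 (blank wells). Combination Emax is the second-highest inhibition in the matrix; Bliss excess is observed combination effect minus expected EA + EB − EA·EB, EA and EB being single-agent effects.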

[2] = system: CCRF-CEM (T-Lymphoblastic Leukemia)
Procedure, shortened: as §1

[3] = system: COLO-205 (Colorectal Carcinoma)
Procedure, shortened: as §1

[4] = system: CaR-1 (Colorectal Carcinoma)
Procedure, shortened: as §1

[5] = system: Calu-3 (Lung Adenocarcinoma)
Procedure, shortened: as §1

[6] = system: Daoy (Other Solid Carcinomas)
Procedure, shortened: as §1

[7] = system: DoTc2-4510 (Cervical Carcinoma)
Procedure, shortened: as §1

[8] = system: EC-GI-10 (Esophageal Squamous Cell Carcinoma)
Procedure, shortened: as §1

[9] = system: HCC-78 (Lung Adenocarcinoma)
Procedure, shortened: as §1

[10] = system: HCC1806 (Breast Carcinoma)
Procedure, shortened: as §1

[11] = system: HT-1376 (Bladder Carcinoma)
Procedure, shortened: as §1

[12] = system: HuP-T4 (Pancreatic Carcinoma)
Procedure, shortened: as §1

KELLY (Neuroblastoma) = system: KELLY (Neuroblastoma)
Procedure, shortened: as §1

[13] = system: LNCaP-Clone-FGC (Prostate Carcinoma)
Procedure, shortened: as §1

[14] = system: LS-180 (Colorectal Carcinoma)
Procedure, shortened: as §1

[15] = system: ME-1 (Acute Myeloid Leukemia)
Procedure, shortened: as §1

[16] = system: NCI-H2085 (Non-Small Cell Lung Carcinoma)
Procedure, shortened: as §1

[17] = system: RC-K8 (B-Cell Non-Hodgkin's Lymphoma)
Procedure, shortened: as §1

[18] = system: SK-ES-1 (Ewing's Sarcoma)
Procedure, shortened: as §1

[19] = system: UM-UC-3 (Bladder Carcinoma)
Procedure, shortened: as §1

C[C@@H](c1ccc2nccn2c1)n1nnc2ncc(-c3cnn(C)c3)nc21 [Savolitinib] + CC1(C)CCC(CN2CCN(c3ccc(C(=O)NS(=O)(=O)c4ccc(NCC5CCOCC5)c([N+](=O)[O-])c4)c(Oc4cnc5[nH]ccc5c4)c3)CC2)=C(c2ccc(Cl)cc2)C1 [Venetoclax] (first compound max 1 µM, 7x7, partner max 1 µM)
combination Emax [1]: 0.155 | combination Emax [2]: 0.124 | combination Emax [3]: 0.0209 | combination Emax [4]: 0.171 | combination Emax [5]: 0.153 | combination Emax [6]: 0.152 | combination Emax [7]: 0.182 | combination Emax [8]: 0.116 | combination Emax [9]: 0.145 | combination Emax [10]: 0.142 | combination Emax [11]: 0.103 | combination Emax [12]: 0.0793 | combination Emax (KELLY (Neuroblastoma)): 0.357 | combination Emax [13]: 0.0523 | combination Emax [14]: 0.205 | combination Emax [15]: 1 | combination Emax [16]: 0.107 | combination Emax [17]: 0.129 | combination Emax [18]: 0.197 | combination Emax [19]: 0.143

C[C@@H](c1ccc2nccn2c1)n1nnc2ncc(-c3cnn(C)c3)nc21 [Savolitinib] + Cc1c2c(nn1C)CSCc1cc(n(C)n1)CSc1cc(c3ccccc3c1)OCCCc1c(C(=O)O)n(C)c3c-2c(Cl)ccc13 [AZD5991] (first compound max 1 µM, 7x7, partner max 1 µM)
combination Emax [1]: 0.211 | combination Emax [2]: 0.151 | combination Emax [3]: 0.0758 | combination Emax [4]: 0.154 | combination Emax [5]: 0.2 | combination Emax [6]: 0.126 | combination Emax [7]: 0.205 | combination Emax [8]: 0.285 | combination Emax [9]: 0.18 | combination Emax [10]: 0.2 | combination Emax [11]: 0.179 | combination Emax [12]: 0.265 | combination Emax (KELLY (Neuroblastoma)): 0.805 | combination Emax [13]: 0.163 | combination Emax [14]: 0.199 | combination Emax [15]: 0.397 | combination Emax [16]: 0.158 | combination Emax [17]: 0.113 | combination Emax [18]: 0.781 | combination Emax [19]: 0.14

Cn1cnc2c(F)c(Nc3ccc(Br)cc3Cl)c(C(=O)NOCCO)cc21 [Selumetinib] + C=CCn1c(=O)c2cnc(Nc3ccc(N4CCN(C)CC4)cc3)nc2n1-c1cccc(C(C)(C)O)n1 [AZD1775] (first compound max 10 µM, partner max 1 µM)
combination Emax [1]: 0.472 | combination Emax [2]: 0.996 | combination Emax [3]: 0.85 | combination Emax [4]: 0.288 | combination Emax [5]: 0.143 | combination Emax [6]: 0.844 | combination Emax [7]: 0.251 | combination Emax [8]: 0.919 | combination Emax [9]: 0.345 | combination Emax [10]: 0.919 | combination Emax [11]: 0.362 | combination Emax [12]: 0.396 | combination Emax (KELLY (Neuroblastoma)): 1 | combination Emax [13]: 0.625 | combination Emax [14]: 0.604 | combination Emax [15]: 0.484 | combination Emax [16]: 0.271 | combination Emax [17]: 0.72 | combination Emax [18]: 0.944 | combination Emax [19]: 0.268

Cn1cnc2c(F)c(Nc3ccc(Br)cc3Cl)c(C(=O)NOCCO)cc21 [Selumetinib] + CC(C)n1c(=O)n(C)c2cnc3cc(F)c(-c4ccc(OCCCN5CCCCC5)nc4)cc3c21 [AZD1390] (first compound max 10 µM, 7x7, partner max 0.3 µM)
combination Emax [1]: 0.254 | combination Emax [2]: 0.108 | combination Emax [3]: 0.705 | combination Emax [4]: 0.188 | combination Emax [5]: 0.115 | combination Emax [6]: 0.126 | combination Emax [7]: 0.144 | combination Emax [8]: 0.323 | combination Emax [9]: 0.123 | combination Emax [10]: 0.299 | combination Emax [11]: 0.157 | combination Emax [12]: 0.293 | combination Emax (KELLY (Neuroblastoma)): 0.22 | combination Emax [13]: 0.0956 | combination Emax [14]: 0.573 | combination Emax [15]: 0.434 | combination Emax [16]: 0.191 | combination Emax [17]: 0.209 | combination Emax [18]: 0.19 | combination Emax [19]: 0.187

Cn1cnc2c(F)c(Nc3ccc(Br)cc3Cl)c(C(=O)NOCCO)cc21 [Selumetinib] + CCN(CCO)CCCOc1ccc2c(Nc3cc(CC(=O)Nc4cccc(F)c4)[nH]n3)ncnc2c1 [AZD2811] (first compound max 10 µM, 7x7, partner max 1 µM)
combination Emax [1]: 0.346 | combination Emax [2]: 0.968 | combination Emax [3]: 0.983 | combination Emax [4]: 0.406 | combination Emax [5]: 0.134 | combination Emax [6]: 0.356 | combination Emax [7]: 0.224 | combination Emax [8]: 0.546 | combination Emax [9]: 0.267 | combination Emax [10]: 0.321 | combination Emax [11]: 0.198 | combination Emax [12]: 0.421 | combination Emax (KELLY (Neuroblastoma)): 0.645 | combination Emax [13]: 0.284 | combination Emax [14]: 0.623 | combination Emax [15]: 0.413 | combination Emax [16]: 0.492 | combination Emax [17]: 0.443 | combination Emax [18]: 0.96 | combination Emax [19]: 0.224

Cn1cnc2c(F)c(Nc3ccc(Br)cc3Cl)c(C(=O)NOCCO)cc21 [Selumetinib] + C[C@@H]1COCCN1C2=NC(=NC(=C2)C3(CC3)[S@](=N)(=O)C)C4=C5C=CNC5=NC=C4 [AZD6738] (first compound max 10 µM, 7x7, partner max 10 µM)
combination Emax [1]: 0.421 | combination Emax [2]: 0.963 | combination Emax [3]: 0.76 | combination Emax [4]: 0.395 | combination Emax [5]: 0.408 | combination Emax [6]: 0.882 | combination Emax [7]: 0.392 | combination Emax [8]: 0.647 | combination Emax [9]: 0.537 | combination Emax [10]: 0.938 | combination Emax [11]: 0.467 | combination Emax [12]: 0.568 | combination Emax (KELLY (Neuroblastoma)): 0.952 | combination Emax [13]: 0.673 | combination Emax [14]: 0.76 | combination Emax [15]: 0.469 | combination Emax [16]: 0.35 | combination Emax [17]: 0.87 | combination Emax [18]: 0.82 | combination Emax [19]: 0.312

CC(=O)Nc1cccc(-n2c(=O)n(C3CC3)c(=O)c3c(Nc4ccc(I)cc4F)n(C)c(=O)c(C)c32)c1 [Trametinib] + Cc1nc(-c2cn3c(n2)-c2ccc(-c4cnn(C(C)(C)C(N)=O)c4)cc2OCC3)n(C(C)C)n1 [Taselisib] (first compound max 1 µM, 7x7, partner max 10 µM)
combination Emax [1]: 0.558 | combination Emax [2]: 0.517 | combination Emax [3]: 0.946 | combination Emax [4]: 0.776 | combination Emax [5]: 0.972 | combination Emax [6]: 0.622 | combination Emax [7]: 0.841 | combination Emax [8]: 1 | combination Emax [9]: 0.712 | combination Emax [10]: 0.798 | combination Emax [11]: 0.339 | combination Emax [12]: 0.832 | combination Emax (KELLY (Neuroblastoma)): 0.47 | combination Emax [13]: 0.813 | combination Emax [14]: 0.903 | combination Emax [15]: 0.381 | combination Emax [16]: 0.52 | combination Emax [17]: 0.512 | combination Emax [18]: 0.696 | combination Emax [19]: 0.773
